In data set [1] the test system is weeds. In words: Pre-emergence test (greenhouse), damage to weeds. It counts as in vivo. On the procedure: (§1) Solvent: 5 parts by weight of acetone
(§2) Emulsifier: 1 part by weight of alkylaryl polyglycol ether
(§3) To produce a suitable preparation of active compound, 1 part by weight of active compound is mixed with the stated amount of solvent, the stated amount of emulsifier is added and the concentrate is diluted with water to the desired concentration.
(§4) Seeds of the test plants are sown in normal soil. After 24 hours, the soil is sprayed with the preparation of active compounds such that the particular amount of active compound desired is applied per unit area. The concentration of active compound in the spray liquor is chosen such that the particular amount of active compound desired is applied in 1000 liters of water per hectare.
(§5) After three weeks, the degree of damage to the plants is rated in % damage in comparison to the development of the untreated control. The figures denote: • 0%=no effect (like untreated control) • 100%=total destruction

For data set [2], the system named is weeds. Briefly: Post-emergence test (greenhouse), damage to weeds. Format: in vivo. On the procedure: as §1, §2
(§6) To product a suitable preparation of active compound, 1 part by weight of active compound is mixed with the stated amount of solvent, the stated amount of emulsifier is added and the concentrate is diluted with water to the desired concentration.
(§7) Test plants of a height of 5-15 cm are sprayed with the preparation of active compound such that the particular amounts of active compound desired are applied per unit area. The concentration of the spray liquor is chosen such that the particular amounts of active compound desired are applied in 10001 of water/ha.
(§8) After three weeks, the degree of damage to the plants is rated in % damage in comparison to the development of the untreated control.
(§9) The figures denote: • 0%=no effect (like untreated control) • 100%=total destruction

For data set [3], the system named is apple mildew pathogen Podosphaera leucotricha. In words: Podosphaera test (apple)/protective. Format: in vivo. Particulars: protective, application rate of 100 g/ha, evaluation 10 days after the inoculation. On the procedure:
Solvent: 49 parts by weight of acetone
as §2
To produce a suitable preparation of active compound, 1 part by weight of active compound is mixed with the stated amounts of solvent and emulsifier, and the concentrate is diluted with water to the desired concentration.
To test for protective activity, young plants are sprayed with the preparation of active compound at the stated application rate. After the spray coating has dried on, the plants are inoculated with an aqueous spore suspension of the apple mildew pathogen Podosphaera leucotricha. The plants are then placed in a greenhouse at about 23° C. and a relative atmospheric humidity of about 70%.
Evaluation is carried out 10 days after the inoculation. 0% means an efficacy which corresponds to that of the control, whereas an efficacy of 100% means that no infection is observed.

Data set [4] concerns crop plants, such as, for example, wheat and soya. Briefly: Pre-emergence test (greenhouse), tolerance by crop plants. It counts as in vivo. The following applies: after three weeks. On the procedure:
as §1, §2, §3, §4, §5

The test system of data set [5] is crop plants, such as, for example, corn, wheat and sugar beet. In words: Post-emergence test (greenhouse), tolerance by crop plants. The following applies: after three weeks. Format: in vivo. On the procedure:
as §1, §2, §6, §7, §8, §9

[6] abbreviates: 125 g of a.i./ha, after three weeks.
[7] abbreviates: 250 g of a.i./ha, after three weeks.
[8] abbreviates: 30 g of a.i./ha, after three weeks.
Where [9] appears, read: 8 g of a.i./ha, after three weeks, Table B6.
Where [10] appears, read: 30 g of a.i./ha, after three weeks, Table B2.

Where a name gives a salt, the structure may show the parent alone.

With `COc1nc(C)nc(NC(=O)NS(=O)(=O)c2c(C)cccc2OCCF)n1` [Example 1, N-[2-(2-fluoroethoxy)-6-methylphenylsulfonyl]-N′-(4-methoxy-6-methyl-1,3,5-triazin-2-yl)urea], the melting point – broadly, the temperature of the solid-liquid transition – was 161 °C. Also, the activity against weeds result with weeds [1] (soil sprayed 24 hours after sowing, rated after three weeks as % damage vs untreated control) is “very strong activity”. Moreover, the activity against weeds result with weeds [2] (test plants of 5-15 cm sprayed, rated after three weeks as % damage vs untreated control) was “very strong activity”. Besides, in data set [3], the “efficacy against mildew of apples (Podosphaera leucotricha)” value is listed as 100%.
As for `CCCc1cccc(OCCCF)c1S(=O)(=O)NC(=O)Nc1nc(OC)cc(OC)n1` [(25)], in the data set with weeds [1] (setting [6]), the “% damage Chenopodium” value is on record as 90%, the “% damage Datura” value turned out to be 90%, the “% damage Echinochloa” value is given as 90% and the “% damage Stellaria” value came to 90%. The “% damage Viola” value in the data set with weeds [1] (setting [6]) worked out at 100%. Further, in the data set on weeds [1] (setting [7]), the “% damage Alopecurus” value is reported as 95%, the “% damage Amaranthus” value was determined as 100%, the “% damage Avena fatua” value is reported as 90% and the “% damage Galium” value is listed as 95%. Besides, in the data set with weeds [1] (setting [7]), the “% damage Setaria” value was found to be 100% and the “% damage Xanthium” value is on record as 100%. In addition, in data set [4] (125 g of a.i./ha), the “% damage Wheat” value came out at 0%. In the data set with weeds [2] (setting [6]), the “% damage Abutilon” value turned out to be 95%, the “% damage Alopecurus” value is reported as 90%, the “% damage Amaranthus” value came to 100% and the “% damage Datura” value was 100%. Further, in the data set on weeds [2] (setting [6]), the “% damage Solanum” value is on record as 100%. Besides, in the data set with weeds [2] (setting [7]), the “% damage Abutilon” value came out at 100%, the “% damage Alopecurus” value worked out at 90%, the “% damage Amaranthus” value amounted to 100% and the “% damage Avena fatua” value is reported as 90%. For the same compound, in the data set with weeds [2] (setting [7]), the “% damage Galium” value is 100%, the “% damage Setaria” value was found to be 100% and the “% damage Sinapis” value is reported as 100%. In addition, the “% damage Wheat” value in data set [5] (125 g of a.i./ha) worked out at 10%.
Turning to `CCCc1cccc(OCCCF)c1S(=O)(=O)NC(=O)Nc1nc(OC)nc(OC)n1` [(8)], in the data set on weeds [1] (setting [8]), the “% damage Chenopodium” value was 90%, the “% damage Galium” value turned out to be 90%, the “% damage Stellaria” value amounted to 100% and the “% damage Viola” value is 100%. Also, the “% damage Wheat” value in data set [4] (30 g of a.i./ha) came out at 0%. Further, in the data set on weeds [2] (setting [9]), the “% damage Datura” value was found to be 90%, the “% damage Ipomoea” value is 100%, the “% damage Matricaria” value came to 95% and the “% damage Solanum” value was 100%. Also, the “% damage Stellaria” value with weeds [2] (setting [9]) came to 95%. Moreover, in data set [5] (8 g of a.i./ha, Table B6), the “% damage Maize” value worked out at 10% and the “% damage Wheat” value came out at 0%.
The compound `COc1nc(C)nc(NC(=O)NS(=O)(=O)c2c(C)cccc2OCCF)n1` (as salt: sodium) [Example 2, N-[2-(2-fluoroethoxy)-6-methylphenyl-sulfonyl]-M-(4-methoxy-6-methyl-1,3,5-triazin-2-yl)urea sodium salt] showed a melting point of 185 °C.
Regarding `CCCc1cccc(OCCCF)c1S(=O)(=O)NC(=O)Nc1nc(C)nc(OC)n1` [(7)], in the data set with weeds [1] (setting [8]), the “% damage Chenopodium” value is 90%, the “% damage Echinochloa” value is listed as 90%, the “% damage Galium” value was determined as 90% and the “% damage Stellaria” value turned out to be 100%. For the same compound, in the data set on weeds [1] (setting [8]), the “% damage Viola” value is recorded as 100%. In addition, the “% damage Wheat” value in data set [4] (30 g of a.i./ha) is given as 0%. Besides, in the data set with weeds [2] (setting [10]), the “% damage Abutilon” value was found to be 100%, the “% damage Alopecurus” value came to 90%, the “% damage Amaranthus” value came to 100% and the “% damage Datura” value stood at 100%. The “% damage Solanum” value with weeds [2] (setting [10]) was 100%. Further, the “% damage Wheat” value in data set [5] (30 g of a.i./ha, Table B2) turned out to be 0%.
